Measured values reported in patent publication US11787839B2, “Targeting α2δ-1-bound glutamate receptors for treating diseases and disorders” (Board of Regents, The University of Texas System, priority 2017, dated 2023).

What was measured:
MCAO mice = assay: MCAO ischemic stroke model: neurological deficit and infarct volume; type: in vivo, mouse; settings: 90 min MCAO, 24 h reperfusion; gabapentin 100 mg/kg i.p. pre- or posttreatment; peptide 200 μg/kg i.p. twice
Experimental: Gabapentin was administered intraperitoneally (i.p.) either before or after initiating MCAO in separate groups of mice (pretreatment and posttreatment groups). […] Saline at the same volume as the gabapentin was administered i.p. in a vehicle group that also received MCAO.
It was then determined whether the α2δ-1-NMDAR interaction is involved in brain injury and neurological deficits caused by MCAO. In this protocol, MCAO-subjected mice with two injections of α2δ-1Tat peptide or control peptide (both 200 μg/kg, i.p.): one at 15 min before MCAO and another immediately before reperfusion. […] Furthermore, the brain infarct volume was much less in mice treated with α2δ-1Tat peptide than in mice treated with the control peptide (FIG. 22D).
Animal model. All procedures and protocols were approved by the Institutional Animal Care and Use Committee of The University of Texas MD Anderson Cancer Center. Adult male wild-type (WT) and conventional Cacna2d1 knockout (KO) mice (25-30 g, 8-10 weeks of age) were used in the study. MCAO was used in mice as an ischemic stroke model. The neurological deficits of mice subjected to MCAO were evaluated using a modified Longa test on a scale of 0-5. The brain coronal sections were stained using 1% 2,3,5-triphenyltetrazolium chloride (TTC), and the stained sections were captured as digital images and quantified for infarct volume.

morphine-treated rats = assay: Opioid-induced hyperalgesia and analgesic tolerance in rats; settings: co-treatment: gabapentin 100 mg/kg i.p. or peptide 1 μg intrathecal
calpain = assay: MCAO: spectrin BD level (calpain activation) in brain tissues; type: in vivo, mouse; settings: MCAO WT mice; gabapentin posttreatment; peptide 200 μg/kg i.p. twice
Source text: α2δ-1 and α2δ-1-bound NMDARs contribute to MCAO-induced calpain activation in brain tissues: Cerebral ischemia increases calpain activity, and calpain inhibition is neuroprotective against ischemia-induced brain injury. Spectrin is highly sensitive to proteolysis by calpain, and the stable αIIspectrin breakdown product (spectrin BD, 150 kDa) is commonly used as a biochemical assay for calpain activation.

[1] = biological target: T1, GluN1 and α2δ-1 in hypothalamic synaptosomes (Rattus norvegicus, UniProt P35439+Q00959+Q00960); assay: Protein level analysis in hypothalamic synaptosomes (Ang II); type: cell-based
T1 construct: from tissue; host or cells: rat hypothalamic slices containing the PVN (Sprague-Dawley, WKY, SHR) and synaptosomes made from them
Experimental: Protein level analysis in hypothalamic synaptosomes: The hypothalamic tissues containing the PVN (pooled from 2 rats per sample) were homogenized using 10 volumes of ice-cold HEPES-buffered sucrose (0.32 mol/L sucrose, 1 mmol/L EGTA, and 4 mmol/L HEPES at pH 7.4) containing the protease inhibitor cocktail (Sigma-Aldrich). The homogenate was centrifuged at 2,000×g for 10 min at 4° C. to remove the nuclei and large debris. The supernatant was centrifuged at 20,000×g for 30 min to obtain the crude synaptosomal fraction. The synaptosomal pellet was lysed via hypo-osmotic shock in 9 volumes of ice-cold HEPES-buffer with the protease inhibitor cocktail for 30 min. The lysate was centrifuged at 25,000×g for 45 min at 4° C. to obtain the synaptosomal membrane fraction (Chen et al., 2018), which was then dissolved in sodium dodecyl sulfate sample buffer at a final concentration of 0.25 μg/μl for immunoblotting.
Western blotting was used to quantify GluN1 and α2δ-1 protein levels in the hypothalamic synaptosome. Fifteen micrograms of total proteins from each sample was loaded and separated by 4-15% Tris-HCl sodium dodecyl sulfate-polyacrylamide gel electrophoresis (#456-1086, Bio-Rad, Hercules, Calif.). The resolved proteins were transferred to a polyvinylidene difluoride membrane (Millipore). The membrane was treated with 5% nonfat dry milk in Tris-buffered saline (TBS) at 25° C. for 1 h and then incubated in TBS supplemented with 0.1% Triton X-100, 1% bovine serum albumin, and rabbit anti-GluN1 (#G8913, 1:100; Sigma, RRID: AB_259978), rabbit anti-α2δ-1 (#ACC-015, 1:500, Alomone, Jerusalem, Israel, RRID: AB_2039785), and mouse anti-PSD-95 (#75-348, 1:1,000, NeuroMab, Davis, Calif., RRID: AB_2315909) antibodies overnight at 4° C. The membrane was washed 3 times and then incubated with horseradish peroxidase-conjugated anti-rabbit IgG (1:5,000; Jackson ImmunoResearch, West Grove, Pa.) for 1 h at room temperature. The protein bands were detected with an enhanced chemiluminescence kit (Thermo Fisher Scientific, Waltham, Mass.), and protein band intensity was visualized and quantified using an Odyssey Fc Imager (LI-COR Biosciences, Lincoln, Nebr.). The protein levels of GluN1 and α2δ-1 were normalized by the PSD-95 protein band on the same gel.

anesthetized rats = assay: PVN microinjection and recording of RSNA and ABP (Ang II); type: in vivo, rat
Experimental: PVN microinjection and recording of renal sympathetic nerve activity: Rats were anesthetized with a mixture of α-chloralose (60 mg/kg, i.p.) and urethane (800 mg/kg, i.p.). A retroperitoneal incision was made, and a branch of the left renal postganglionic sympathetic nerve was isolated under a surgical microscope. The renal sympathetic nerve was cut distally to ensure that afferent nerve activity was not recorded. The renal sympathetic nerve activity (RSNA), arterial blood pressure (ABP), and heart rate (HR) were recorded using a 1401-PLUS analog-to-digital converter and Spike2 system (Cambridge Electronic Design, Cambridge, UK). A microinjection pipette (tip diameter, 20-30 μm) was advanced into the PVN according to the following stereotactic coordinates: 1.6-2.0 mm caudal to the bregma, 0.5 mm lateral to the midline, and 7.0-7.5 mm ventral to the dura. The microinjection was done using a calibrated microinjection system (Nanoject II; Drummond Scientific) and monitored using a surgical microscope as described previously (Li and Pan, 2006, 2007; Qiao et al., 2017). Ang II (200 μmol/L, 50 nl) was microinjected into the PVN to observe the change in RSNA and ABP in the absence or presence of α2δ-1Tat peptide (100 μmol/L, 50 nl) or control peptide (100 μmol/L, 50 nl). The microinjections were separated by 10- to 15-min intervals to allow recovery of the response. To determine the location of the injection site and diffusion of the drugs in the PVN, 5% rhodamine-labeled fluorescent microspheres (0.04 μm; Molecular Probes) were included in the injection solution (Li and Pan, 2006, 2007; Qiao et al., 2017).

[2] = Ang II 2 μmol/L for 60 min vs vehicle
[3] = peptide 1 μmol/L for 30 min, vs control peptide

T1 sequence (Q00959 20-1464 limits assumed, other chains not shown): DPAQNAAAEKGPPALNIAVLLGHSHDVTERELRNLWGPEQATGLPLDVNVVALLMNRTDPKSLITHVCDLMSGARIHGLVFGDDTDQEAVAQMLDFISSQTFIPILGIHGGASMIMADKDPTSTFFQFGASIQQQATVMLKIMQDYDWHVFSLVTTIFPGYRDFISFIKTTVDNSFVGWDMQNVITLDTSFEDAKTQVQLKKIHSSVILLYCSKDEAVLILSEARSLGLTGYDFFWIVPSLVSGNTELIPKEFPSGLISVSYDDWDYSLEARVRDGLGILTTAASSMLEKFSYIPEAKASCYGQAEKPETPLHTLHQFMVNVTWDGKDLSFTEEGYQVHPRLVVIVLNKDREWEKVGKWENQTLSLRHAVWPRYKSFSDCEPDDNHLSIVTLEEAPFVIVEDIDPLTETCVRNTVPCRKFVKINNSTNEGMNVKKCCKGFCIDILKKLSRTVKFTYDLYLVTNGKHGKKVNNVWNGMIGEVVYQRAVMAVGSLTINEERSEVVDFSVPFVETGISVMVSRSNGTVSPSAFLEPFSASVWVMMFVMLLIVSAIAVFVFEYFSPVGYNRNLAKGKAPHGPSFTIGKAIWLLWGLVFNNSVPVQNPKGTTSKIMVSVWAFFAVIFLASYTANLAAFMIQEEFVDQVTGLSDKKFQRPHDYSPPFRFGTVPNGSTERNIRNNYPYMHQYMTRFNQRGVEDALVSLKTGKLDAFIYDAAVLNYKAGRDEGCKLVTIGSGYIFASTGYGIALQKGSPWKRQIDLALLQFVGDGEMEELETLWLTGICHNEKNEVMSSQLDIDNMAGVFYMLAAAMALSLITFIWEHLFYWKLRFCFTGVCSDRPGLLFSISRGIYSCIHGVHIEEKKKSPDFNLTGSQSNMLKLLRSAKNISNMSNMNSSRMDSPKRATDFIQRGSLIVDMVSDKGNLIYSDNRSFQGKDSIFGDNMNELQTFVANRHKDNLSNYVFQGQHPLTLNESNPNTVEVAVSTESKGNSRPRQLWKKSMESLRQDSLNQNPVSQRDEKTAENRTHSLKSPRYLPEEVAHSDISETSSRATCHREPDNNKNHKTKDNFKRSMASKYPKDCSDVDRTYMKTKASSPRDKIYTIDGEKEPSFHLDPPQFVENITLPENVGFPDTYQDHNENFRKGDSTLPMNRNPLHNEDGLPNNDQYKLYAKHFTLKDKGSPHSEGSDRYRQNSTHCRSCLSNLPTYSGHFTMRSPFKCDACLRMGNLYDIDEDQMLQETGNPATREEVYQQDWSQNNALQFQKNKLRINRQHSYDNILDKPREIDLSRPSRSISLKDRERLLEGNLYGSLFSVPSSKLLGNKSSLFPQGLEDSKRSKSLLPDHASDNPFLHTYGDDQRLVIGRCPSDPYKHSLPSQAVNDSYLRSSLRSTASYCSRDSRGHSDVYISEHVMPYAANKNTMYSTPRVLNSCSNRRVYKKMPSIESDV
T1 sequence (Q00960 27-1482, other chains not shown): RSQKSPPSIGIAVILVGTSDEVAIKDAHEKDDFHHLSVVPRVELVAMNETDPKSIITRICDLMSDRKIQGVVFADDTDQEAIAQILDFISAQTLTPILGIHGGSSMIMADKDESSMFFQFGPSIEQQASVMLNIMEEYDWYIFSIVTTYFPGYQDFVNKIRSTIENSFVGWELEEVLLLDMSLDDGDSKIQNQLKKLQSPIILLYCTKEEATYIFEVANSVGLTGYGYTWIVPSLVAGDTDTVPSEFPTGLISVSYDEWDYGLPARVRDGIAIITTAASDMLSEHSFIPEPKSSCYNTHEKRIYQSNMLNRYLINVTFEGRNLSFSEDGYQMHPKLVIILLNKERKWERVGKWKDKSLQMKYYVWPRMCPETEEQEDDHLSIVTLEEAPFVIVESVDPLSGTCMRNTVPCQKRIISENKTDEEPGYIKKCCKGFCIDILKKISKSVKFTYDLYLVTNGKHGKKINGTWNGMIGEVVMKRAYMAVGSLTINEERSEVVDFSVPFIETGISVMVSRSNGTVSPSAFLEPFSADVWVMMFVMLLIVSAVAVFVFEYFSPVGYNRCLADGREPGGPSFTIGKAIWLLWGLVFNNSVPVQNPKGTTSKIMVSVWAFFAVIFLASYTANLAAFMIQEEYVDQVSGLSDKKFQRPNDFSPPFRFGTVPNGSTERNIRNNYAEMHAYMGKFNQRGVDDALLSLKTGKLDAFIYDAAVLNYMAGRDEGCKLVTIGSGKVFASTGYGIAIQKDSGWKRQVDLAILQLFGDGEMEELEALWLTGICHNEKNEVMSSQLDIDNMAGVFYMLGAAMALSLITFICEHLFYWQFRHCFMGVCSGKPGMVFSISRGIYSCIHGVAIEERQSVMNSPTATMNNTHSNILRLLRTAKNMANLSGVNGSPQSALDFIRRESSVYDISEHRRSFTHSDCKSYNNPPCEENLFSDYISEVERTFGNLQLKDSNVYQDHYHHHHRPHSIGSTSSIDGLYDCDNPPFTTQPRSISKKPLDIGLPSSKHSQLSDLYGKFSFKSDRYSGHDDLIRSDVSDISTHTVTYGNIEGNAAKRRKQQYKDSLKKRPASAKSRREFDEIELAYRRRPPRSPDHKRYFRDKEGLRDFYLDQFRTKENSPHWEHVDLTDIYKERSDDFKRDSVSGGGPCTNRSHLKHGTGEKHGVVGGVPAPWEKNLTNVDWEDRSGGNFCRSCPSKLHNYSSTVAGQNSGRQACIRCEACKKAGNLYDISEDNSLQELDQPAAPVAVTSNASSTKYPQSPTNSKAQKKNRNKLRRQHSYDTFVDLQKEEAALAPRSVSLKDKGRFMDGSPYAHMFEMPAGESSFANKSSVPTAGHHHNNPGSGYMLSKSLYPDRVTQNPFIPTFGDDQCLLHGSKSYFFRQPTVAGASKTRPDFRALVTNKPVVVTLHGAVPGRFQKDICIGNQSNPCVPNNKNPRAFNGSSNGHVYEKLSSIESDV

Compound | brain infarct volume (MCAO mice) | neurological deficit score (MCAO mice) | reduction in baseline withdrawal thresholds induced by chronic morphine injections (morphine-treated rats) | reduction in the analgesic effect of morphine (morphine-treated rats) | spectrin BD level in cortex, hippocampus and striatum (calpain) | protein level of GluN1 in hypothalamic synaptosomes [1, 2] | protein level of α2δ-1 in hypothalamic synaptosomes [1, 2] | RSNA and mean ABP (anesthetized rats; Ang II 200 μmol/L, 50 nl into the PVN) | effect of Ang II on the protein level of GluN1 [1, 3] | effect of Ang II on the protein level of α2δ-1 [1, 3] | ABP and RSNA responses to Ang II after prior peptide microinjection into the PVN (anesthetized rats; peptides 100 μmol/L, 50 nl)
NCC1(CC(=O)O)CCCCC1 [gabapentin] | much smaller | significantly improved | completely blocked | substantially attenuated | significantly reduced |  |  |  |  |  | 
Ang II: angiotensin II, obtained from Sigma (DRVYIHPF; Angiotensin-2; UniProt P01019 25-32, looked up) |  |  |  |  |  | significantly increased | significantly increased | significantly increased |  |  | 
YGRKKRRQRRRVSGLNPSLWSIFGLQFILLWLVSGSRHYLW (a2d1 peptide) [α2δ-1Tat peptide, 30-amino-acid peptide mimicking the C-terminal domain of α2δ-1 fused to the cell-penetrating peptide Tat] | much less | significantly reduced | completely blocked | substantially attenuated | significantly reduced |  |  |  | significantly attenuated | significantly attenuated | failed to significantly increase
